From EP2818472A1, “Imidazo[4,5-c]pyridine and pyrrolo[3,2-c]pyridine compounds as G-protein-coupled receptor kinase 5 (GRK5) modulators” (Max-Planck-Gesellschaft zur Förderung der Wissenschaften …, priority 2013, dated 2014) come the findings set out here.

For this assay, the system named is beta-TC6 cells. The assay is described as follows: Insulin HTRF assay (relative activity Ar) in beta-TC6 cells. Conditions: Mus musculus, Beta-TC6, 4 h, insulin HTRF, supernatant of beta-TC6 cells, incubation with test compound at 37°C for 2, 3, 4h; read-out: Ar (relative activity). Format: cell-based, mouse. In short, it runs like this: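 beta-TC6 cells (15k/well, seeded 24 or 48 h) washed, then exposed to compound in induction buffer (0.5% DMSO final) for 2, 3 or 4 h at 37°C.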
A general note: In TR-FRET formats the signal depends on donor and acceptor labels being close together.
With `COc1ccc(Nc2cc3c(cn2)cc(-c2cccnc2)n3C)cc1OC` [Compound 85, N-(3,4-dimethoxyphenyl)-1-methyl-2-(3-pyridyl)pyrrolo[3,2-c]pyridin-6-amine], the Emax was 50 to 100%. As for `c1cncc(-c2cc3c(Nc4ccc5c(c4)OCCO5)nccc3[nH]2)c1` [Compound 232, N-(2,3-dihydro-1,4-benzodioxin-6-yl)-2-(3-pyridyl)-1H-pyrrolo[3,2-c]pyridin-4-amine], the figure is 50 to 100%. On to `CNc1nc2cnc(-c3cccc(Cl)c3)cc2n1Cc1ccccc1` [Compound 532, 1-benzyl-6-(3-chlorophenyl)-N-methyl-imidazo[4,5-c]pyridin-2-amine], for which the Emax is 50 to 100%.

Take `CN(C)c1ccc(-c2cc3cnc(Nc4ccccn4)cc3n2C)cc1` [Compound 59, 2-(4-dimethylaminophenyl)-1-methyl-N-(2-pyridyl)pyrrolo[3,2-c]pyridin-6-amine]: the Emax lay within 0 to 30%.

As to `CNc1nc2cnc(Nc3ccc(OC)nc3)cc2n1-c1cccc(C(F)(F)F)c1` [Compound 546, N6-(6-methoxy-3-pyridyl)-N2-methyl-1-[3-(trifluoromethyl)phenyl]imidazo[4,5-c]pyridine-2,6-diamine], the Emax was in the range of 30 to 50%. Regarding `CNc1nc2cnc(Nc3ccc(OC)cc3OC)cc2n1-c1cccc(C(F)(F)F)c1` [Compound 543, N6-(2,4-dimethoxyphenyl)-N2-methyl-1-[3-(trifluoromethyl)phenyl]imidazo[4,5-c]pyridine-2,6-diamine], the Emax was in the range of 30 to 50%. Turning to `Cn1c(-c2cccnc2)cc2cnc(Nc3ccc4c(c3)OCO4)cc21` [Compound 93, N-(1,3-benzodioxol-5-yl)-1-methyl-2-(3-pyridyl)pyrrolo[3,2-c]pyridin-6-amine], the Emax lay within 50 to 100%. As for `COc1ccc(-c2nc3c(Nc4cccc(O)c4)nccc3[nH]2)cc1` [Compound 397, 3-[[2-(4-methoxyphenyl)-1H-imidazo[4,5-c]pyridin-4-yl]amino]phenol], the figure is 50 to 100%; as for `CC(=O)Nc1cccc(Nc2cc3[nH]c(-c4cccnc4)cc3cn2)c1` [Compound 80, N-[3-[[2-(3-pyridyl)-1H-pyrrolo[3,2-c]pyridin-6-yl]amino]phenyl]acetamide], over 100%. For `CC(=O)N(C)c1cccc(-c2cc3cnc(N4CCOCC4)cc3n2C)c1` [Compound 171, N-methyl-N-[3-(1-methyl-6-morpholino-pyrrolo[3,2-c]pyridin-2-yl)phenyl]acetamide], the Emax was in the range of 50 to 100%. As for `CNc1nc2cnc(Nc3ccc(OC)cc3OC)cc2n1CCN1CCOCC1` [Compound 553, N6-(2,4-dimethoxyphenyl)-N2-methyl-1-(2-morpholinoethyl)imidazo[4,5-c]pyridine-2,6-diamine], the figure is 30 to 50%.

In the case of `COc1cc(Nc2cc3[nH]c(-c4cncn4C)cc3cn2)cc(OC)c1OC` [Compound 100, 2-(3-methylimidazol-4-yl)-N-(3,4,5-trimethoxyphenyl)-1H-pyrrolo[3,2-c]pyridin-6-amine], the Emax was over 100%. Take `COc1ccc(-c2nc3c(N(C)c4ccccc4)nccc3[nH]2)cc1OC` [Compound 349, 2-(3,4-dimethoxyphenyl)-N-methyl-N-phenyl-1H-imidazo[4,5-c]pyridin-4-amine]: the Emax was 30 to 50%.

For `COc1ccc(Nc2cc3c(cn2)cc(-c2ccc(C(=O)N(C)C)cc2)n3C)cc1O` [Compound 54, 4-[6-(3-hydroxy-4-methoxy-anilino)-1-methyl-pyrrolo[3,2-c]pyridin-2-yl]-N,N-dimethyl-benzamide], the Emax lay in the range of 50 to 100%. Then `Cn1c(-c2cccc(Cl)c2)cc2c(Nc3ccncn3)nccc21` [Compound 316, 2-(3-chlorophenyl)-1-methyl-N-pyrimidin-4-yl-pyrrolo[3,2-c]pyridin-4-amine], with 30 to 50%. As for `Clc1cccc(-c2cc3c(Nc4cccnc4)nccc3[nH]2)c1` [Compound 315, 2-(3-chlorophenyl)-N-(3-pyridyl)-1H-pyrrolo[3,2-c]pyridin-4-amine], the figure is 30 to 50%. Then `Cc1cccc(CNc2nc3cnc(-c4ccc(Cl)cc4)cc3n2C)c1` [Compound 581, 6-(4-chlorophenyl)-1-methyl-N-(m-tolylmethyl)imidazo[4,5-c]pyridin-2-amine], with 30 to 50%; and `COCCCNc1nccc2[nH]c(-c3ccccc3)nc12` [Compound 340, N-(3-methoxypropyl)-2-phenyl-1H-imidazo[4,5-c]pyridin-4-amine], with 30 to 50%. As to `Fc1cccc(-c2nc3c(Nc4cccc(Oc5ccccc5)c4)nccc3[nH]2)c1` [Compound 408, 2-(3-fluorophenyl)-N-(3-phenoxyphenyl)-1H-imidazo[4,5-c]pyridin-4-amine], the Emax lay in the range of 0 to 30%. Take `Cn1c(-c2cccnc2)cc2cnc(Nc3ccccc3)cc21` [Compound 88, 1-methyl-N-phenyl-2-(3-pyridyl)pyrrolo[3,2-c]pyridin-6-amine]: the Emax lay within 30 to 50%.

For `Oc1cccc(Nc2nccc3[nH]c(-c4ccsc4)cc23)c1` [Compound 264, 3-[[2-(3-thienyl)-1H-pyrrolo[3,2-c]pyridin-4-yl]amino]phenol], the Emax fell in the range of 30 to 50%.

With `COc1cc(Nc2cc3c(cn2)nc(-c2ccco2)n3C)cc(OC)c1OC` [Compound 707, 2-(2-furyl)-1-methyl-N-(3,4,5-trimethoxyphenyl)imidazo[4,5-c]pyridin-6-amine], the Emax was over 100%.

Regarding `Cn1c(-c2cccc(Cl)c2)cc2c(N3CCOCC3)nccc21` [Compound 195, 4-[2-(3-chlorophenyl)-1-methyl-pyrrolo[3,2-c]pyridin-4-yl]morpholine], the Emax lay within 30 to 50%. Consider `COc1ccc(Nc2nccc3[nH]c(-c4cccc(O)c4)nc23)cc1` [Compound 362, 3-[4-(4-methoxyanilino)-1H-imidazo[4,5-c]pyridin-2-yl]phenol], for which the Emax was 50 to 100%.

Regarding `CC(=O)Nc1ccc(Nc2nccc3[nH]c(-c4cccc(F)c4)cc23)cc1` [Compound 198, N-[4-[[2-(3-fluorophenyl)-1H-pyrrolo[3,2-c]pyridin-4-yl]amino]phenyl]acetamide], the Emax is 50 to 100%.

For the molecule `Fc1ccc(C(F)(F)F)cc1Nc1cc2[nH]c(-c3cccnc3)cc2cn1` [Compound 79, N-[2-fluoro-5-(trifluoromethyl)phenyl]-2-(3-pyridyl)-1H-pyrrolo[3,2-c]pyridin-6-amine], the Emax lay within 30 to 50%.

Take `CNc1nc2cnc(Nc3cccc(NC(C)=O)c3)cc2n1-c1cccc(F)c1` [Compound 688, N-[3-[[1-(3-fluorophenyl)-2-(methylamino)imidazo[4,5-c]pyridin-6-yl]amino]phenyl]acetamide]: the Emax lay in the range of 50 to 100%. As for `CC(=O)Nc1ccc(Nc2cc3c(cn2)nc(-c2cccc(F)c2)n3C)cc1` [Compound 713, N-[4-[[2-(3-fluorophenyl)-1-methyl-imidazo[4,5-c]pyridin-6-yl]amino]phenyl]acetamide], the figure is 50 to 100%; as for `Sc1nc2cnccc2n1-c1ccccc1` [Compound 741, 1-phenylimidazo[4,5-c]pyridine-2-thiol], 50 to 100%.

With `CNc1nc2cnc(Nc3ccc(NC(C)=O)cc3)cc2n1-c1cc(OC)c(OC)c(OC)c1` [Compound 483, N-[4-[[2-(methylamino)-1-(3,4,5-trimethoxyphenyl)imidazo[4,5-c]pyridin-6-yl]amino]phenyl]acetamide], the Emax lay in the range of 50 to 100%.

Consider `COc1ccc(Nc2nccc3c2cc(-c2cccnc2)n3C)cc1OC` [Compound 238, N-(3,4-dimethoxyphenyl)-1-methyl-2-(3-pyridyl)pyrrolo[3,2-c]pyridin-4-amine], for which the Emax was 30 to 50%. Then `CN1CCN(c2nccc3[nH]c(-c4ccccc4)nc23)CC1` [Compound 334, 4-(4-methylpiperazin-1-yl)-2-phenyl-1H-imidazo[4,5-c]pyridine], with 30 to 50%. As for `CS(=O)(=O)c1ccc(Nc2cc3[nH]c(-c4ccccn4)cc3cn2)cc1` [Compound 72, N-(4-methylsulfonylphenyl)-2-(2-pyridyl)-1H-pyrrolo[3,2-c]pyridin-6-amine], the figure is over 100%; as for `CN(C)C(=O)c1ccc(-c2cc3cnc(Nc4cccc(NS(C)(=O)=O)c4)cc3[nH]2)cc1` [Compound 39, 4-[6-[3-(methanesulfonamido)anilino]-1H-pyrrolo[3,2-c]pyridin-2-yl]-N,N-dimethyl-benzamide], 50 to 100%. Then `CNc1nc2cnc(Nc3ccc(OC)c(OC)c3)cc2n1CCOC` [Compound 495, N6-(3,4-dimethoxyphenyl)-1-(2-methoxyethyl)-N2-methyl-imidazo[4,5-c]pyridine-2,6-diamine], with 30 to 50%; and `Cn1c(-c2ccco2)nc2cnc(-c3cccc(O)c3)cc21` [Compound 736, 3-[2-(2-furyl)-1-methyl-imidazo[4,5-c]pyridin-6-yl]phenol], with 50 to 100%; and `CC(=O)Nc1cccc(Nc2cc3[nH]c(-c4ccccc4)cc3cn2)c1` [Compound 183, N-[3-[(2-phenyl-1H-pyrrolo[3,2-c]pyridin-6-yl)amino]phenyl]acetamide], with 50 to 100%.

For `c1ccc(Nc2cc3[nH]c(-c4cn[nH]c4)cc3cn2)nc1` [Compound 115, 2-(1H-pyrazol-4-yl)-N-(2-pyridyl)-1H-pyrrolo[3,2-c]pyridin-6-amine], the Emax was over 100%. As for `CNc1nc2cnc(-c3cccc4ccccc34)cc2n1-c1cccc(F)c1` [Compound 884, 1-(3-fluorophenyl)-N-methyl-6-(1-naphthyl)imidazo[4,5-c]pyridin-2-amine], the figure is 30 to 50%; as for `Cn1c(Nc2ccccc2)nc2cnc(Nc3cccc(O)c3)cc21` [Compound 638, 3-[(2-anilino-1-methyl-imidazo[4,5-c]pyridin-6-yl)amino]phenol], 50 to 100%; as for `CNc1nc2cnc(Nc3cccc(O)c3)cc2n1-c1ccccc1` [Compound 513, 3-[[2-(methylamino)-1-phenyl-imidazo[4,5-c]pyridin-6-yl]amino]phenol], 50 to 100%.
